One assay deals with HCT116. Put plainly: Cell viability, sensitivity to prexasertib (Example 1). Set-up: species or system human. To be noted: HCT116 cell line; based on EC50 from prior publications. On the procedure:
(§1) Predicted response to prexasertib was compared to experimentally measured sensitivity to prexasertib. […] EC50 values of less than or equal to 1 μM were considered to be actual responders, while values of greater than 1 μM were considered to be actual non-responders.

The next assay concerns PANC1. The assay is described as above. The arrangement: species or system human. To be noted: PANC1 cell line; based on EC50 from prior publications. As to the method:
as §1

Another assay has as its system ST1827 ovarian PDX tumor. The assay is described as follows: Response to prexasertib treatment in ovarian PDX tumor model (Example 3). Set-up: key to Response type: CR = complete regression; PR = partial regression; S = stasis; G = growth. The format is in vivo. The source says: (§2) To evaluate whether the provided Response-Predictive Signature can predict response to prexasertib treatment, the predicted response for each PDX model was compared to an experimentally determined response to prexasertib treatment for the same PDX model. The experimentally measured response was quantified as follows: if a treated tumor reduced in size/volume, then the percent regression compared to an initial volume of a treated tumor was provided, if a treated tumor increased in size/volume, then a percent ratio of the treated tumor's growth was divided by control tumor (i.e., untreated tumor) growth (d[T/C]). Negative values for regression percentage indicate response to treatment with prexasertib, while positive values indicate continued growth and non-response to prexasertib treatment. The experimentally measured response was further categorized as complete regression (near −100% regression), partial regression (−50% to −100% regression), stasis (<20% median tumor growth to −50% regression), and growth (>20% median tumor growth).

In a further assay the test system is ST182B ovarian PDX tumor. The description is as above. The class given is in vivo. Set-up: key to Response type: CR = complete regression; PR = partial regression; S = stasis; G = growth.
Text: as §2

For another assay, the system named is ST206B ovarian PDX tumor. The description is as above. The class given is in vivo. Set-up: key to Response type: CR = complete regression; PR = partial regression; S = stasis; G = growth.
Text: as §2

The next assay relates to ST2249 ovarian PDX tumor. The assay is described as above. The format is in vivo. Set-up: key to Response type: CR = complete regression; PR = partial regression; S = stasis; G = growth.
Text: as §2

In the next assay the test system is ST260 ovarian PDX tumor. Described as above. The class given is in vivo. The arrangement: key to Response type: CR = complete regression; PR = partial regression; S = stasis; G = growth.
Text: as §2

Here are results for 1 compound from patent publication US20260166029A1, “METHODS AND SYSTEMS FOR TREATING DISEASE USING AN ATR/CHK1 SIGNALING PATHWAY INHIBITOR” (Acrivon Therapeutics, Inc., priority 2022, published 2026).

In the case of `COc1cccc(OCCCN)c1-c1cc(Nc2cnc(C#N)cn2)n[nH]1` [prexasertib, 5-(5-(2-(3-aminopropoxy)-6-methoxyphenyl)-1H-pyrazol-3-ylamino)pyrazine-2-carbonitrile], the Actual response status result in the assay with HCT116 was “R (EC50 values of less than or equal to 1 μM were considered to be actual responders)”; with PANC1 it was “NR (values of greater than 1 μM were considered to be actual non-responders)”. The Response type result in the assay on ST1827 ovarian PDX tumor, in the assay with ST182B ovarian PDX tumor, in the assay with ST206B ovarian PDX tumor, with ST2249 ovarian PDX tumor and in the assay on ST260 ovarian PDX tumor was “CR” throughout. Further, the “Best d[T/C], or Regression” value with ST1827 ovarian PDX tumor (negative = regression), in the assay on ST182B ovarian PDX tumor (negative = regression), in the assay on ST206B ovarian PDX tumor (negative = regression), in the assay with ST2249 ovarian PDX tumor (negative = regression) and in the assay with ST260 ovarian PDX tumor (negative = regression) was −100% in each case.
